{
  "source": "patent US20220370416A1",
  "about": "“COMPOUNDS AND METHODS FOR TARGETED DEGRADATION OF KRAS” (Arvinas Operations, Inc., priority 2020, published 2022)",
  "key": {"KRAS^G12D": {"target": "T1, KRAS^G12D (Homo sapiens, UniProt P01116, G13D)", "T1 construct": "KRAS degradation was examined in HCT 116 cells, which harbor a heterozygous KRAS^G13D mutation; endogenous in cells; host or cells: HCT116", "test": "KRAS^G12D degradation in HCT116 cells (specificity)", "format": "cell-based", "conditions": "HCT116 cells (FIG. 3B)"}, "KRAS^G12C": {"target": "KRAS^G12C (Homo sapiens, UniProt P01116, G12C)", "test": "KRAS^G12C degradation by immunoblot in NCI-H23 cells", "format": "cell-based", "parameters": "MRTX849-VHL bifunctional compounds engage and degrade endogenous KRAS^G12C in NCI-H2030 cells; endogenous in cells; host or cells: NCI-H2030, NCI-H358, MIA PaCa-2, SW1573, NCI-H23", "method": "NCI-H2030 (CRL-5914), MIA PaCa-2 (CRL-1420), NCI-H23 (CRL-5800), NCI-H358 (CRL-5807), and HCT-116 (CCL-247) cells were obtained from ATCC, expanded immediately, and frozen down. Vials were thawed and used within 20 passages. SW1573 cells were a gift from Arvinas and were handled in the same manner. NCI-H2030, NCI-H23, and NCI-H358 were cultured in RPMI (ATCC30-2001) supplemented with 10% FBS (Biological Industries; cat. no. S1480) and 1% Penicillin-Streptomycin (ThermoFisher; cat. no. 15140122). HCT-116 cells were maintained in high glucose DMEM (ThermoFisher; cat. no. 11965084) supplemented as above. MIA PaCa-2 cells were cultured in high glucose DMEM supplemented with 10% FBS, 2.5% horse serum (ThermoFisher; cat. no. 26050-088; lot 2109875), and 1% Penicillin-Streptomycin. SW1573 cells were maintained in DMEM/F12 Nutrient Mix with GlutaMAX supplement (ThermoFisher; cat. no. 10565018) with 10% FBS and 1% Penicillin-Streptomycin added. DPBS (ThermoFisher; cat. no. 14190250) was used to wash cells and 0.25% Trypsin-EDTA (ThermoFisher; cat. no. […]) was used to detach cells for passaging. […] The VHL ligand was generously provided by Arvinas.\nBetween 2.5×10^5 and 6.0×10^5 cells were seeded into 6-well plates (Corning; cat. no. 353046). The next day, media was removed and cells were treated with 2.5 μM LC-2 for 1, 2, 4, 8, 12, or 24 hours. […] For 24-hour time course experiments, cells were treated at the indicated times and concurrently lysed in RIPA buffer supplemented as described previously. For longer time course experiments and time courses in which cells were treated with LC-2 or LC-2 Epimer, cells were concurrently treated with either compound, then lysed by scraping in RIPA buffer at the indicated time points.\nBetween 2.5×10^5 and 5.0×10^5 cells were seeded into 6-well plates. The next day cells were pretreated with DMSO, 500 μM or 1 mM VHL ligand, 1 μM epoxomicin, 1 μM […], or 100 nM […] bafilomycin A1 for 1 hour. Media was then removed and cells were treated with DMSO, 2.5 μM LC-2 plus DMSO, 2.5 μM LC-2 Epimer plus DMSO, or co-treated with 2.5 μM LC-2 and the corresponding competitor/inhibitor. H2030 cells were treated for 4 hours and H23 cells were treated for 24 hours, after which cells were lysed by scraping in RIPA buffer supplemented as described previously.\nCell lysates were clarified at 21000×g for 15 mins at 4° C. Protein levels were quantified using a 50:1 mixture of bicinchoninic acid solution (Millipore Sigma; cat. no. B9643) and 4% (w/v) copper(II) sulfate solution (Millipore Sigma; cat. no. C2284) incubated at 37° C. for 30 mins. Absorbance values at 560 nm were read on an EnVision 2101 Multilabel Reader (PerkinElmer). Proteins were separated using 26 well Criterion TGX precast 4-15% (cat. no. 5671085) or 8-16% (cat. no. 5671105) gradient midi gels. After separation, proteins were transferred to nitrocellulose or PVDF membranes at 76 V for 2 hours at 4° C. Blots were then blocked in 5% milk in tris-buffered saline with Tween-20 (TBST; 20 mM Tris, 150 mM NaCl, 0.02% Tween-20). After blocking, blots were incubated in primary antibody overnight (12-18 hours) at 4° C. or for 2 hours at room temperature with mild agitation at the manufacturer's indicated dilution in either 5% milk or 5% BSA in TBST. Blots were then washed thrice with TBST for 5 mins at room temperature. After washing, blots were incubated with 1:5,000-1:10,000 of donkey anti-rabbit (GE Life Sciences; NA934) or sheep anti-mouse (GE Life Sciences; NA931) secondary antibody diluted in 5% milk for 1 hour at room temperature with mild agitation. Blots were again washed thrice with TBST for 5 mins. Chemiluminescent signal was generated using Amersham ECL Prime Western Blotting Detection Reagant (GE Life Sciences; cat. no. RPN2232) or SuperSignal West Femto Maximum Sensitivity Substrate (ThermoFisher; cat. no. 34095). Images were obtained using a Bio-Rad ChemiDoc Imager."}},
  "data": [
    {"smiles": "C=C(F)C(=O)N1CCN(c2nc(OC[C@@H]3CCCN3CCCOCCC(=O)N[C@H](C(=O)N3C[C@H](O)C[C@H]3C(=O)NCc3ccc(-c4scnc4C)cc3)C(C)(C)C)nc3c2CCN(c2cccc4cccc(Cl)c24)C3)C[C@@H]1CC#N", "note": "[LC-2, (2S,4R)-1-((S)-2-(3-(3-((S)-2-(((7-(8-chloronaphthalen-1-yl)-4-((S)-3-(cyanomethyl)-4-(2-fluoroacryloyl)piperazin-1-yl)-5,6,7,8-tetrahydropyrido[3,4-d]pyrimidin-2-yl)oxy)methyl)pyrrolidin-1-yl)propoxy)propanamido)-3,3-dimethylbutanoyl)-4-hydroxy-N-(4-(4-methylthiazol-5-yl)benzyl)pyrrolidine-2-carboxamide]", "values": [
      {"measurement": "degradation of KRAS^G12D", "setting": "KRAS^G12D", "result": "does not degrade KRAS^G12D"},
      {"measurement": "Dmax", "setting": "KRAS^G12C; NCI-H23", "result": "> 90", "unit": "%"},
      {"measurement": "KRAS, two-way ANOVA significance vs DMSO", "setting": "KRAS^G12C; NCI-H23, 0.25 μM, FIG. 9B", "result": "* (* p < 0.05)"},
      {"measurement": "duration of KRAS degradation", "setting": "KRAS^G12C; NCI-H23, 2.5 μM", "result": "sustained up to 72 hours"},
      {"measurement": "time at which KRAS^G12C began to rebound", "setting": "KRAS^G12C; NCI-H23, 2.5 μM", "result": 72, "unit": "h"},
      {"measurement": "time to maximal KRAS degradation", "setting": "KRAS^G12C; NCI-H23, 2.5 μM, 6, 24, 48, 72 hours", "result": "≤ 24", "unit": "h"},
      {"measurement": "KRAS, two-way ANOVA significance vs DMSO", "setting": "KRAS^G12C; NCI-H23, 2.5 μM, 6 hours, FIG. 10B", "result": "** (** p < 0.01)"},
      {"measurement": "KRAS, two-way ANOVA significance vs DMSO", "setting": "KRAS^G12C; NCI-H23, 2.5 μM, 24 hours, FIG. 10B", "result": "**** (**** p < 0.001)"},
      {"measurement": "KRAS, two-way ANOVA significance vs DMSO", "setting": "KRAS^G12C; NCI-H23, 10 μM, FIG. 9B", "result": "N.S."},
      {"measurement": "DC50", "setting": "KRAS^G12C; NCI-H23, heterozygous KRAS^G12C", "result": "250 ± 80", "unit": "nM"},
      {"measurement": "KRAS degradation", "setting": "KRAS^G12C; NCI-H23 cells, heterozygous", "result": "> 50", "unit": "%"}
    ]}
  ]
}
